Laboratory results reported in US6514964B1, “Fused cycloheptane and fused azacycloheptane compounds and their methods of use” (Amgen Inc., priority 1999, dated 2003).
Structures can show the parent of a compound that is named as a salt.

These compounds were tested on human umbilical cord endothelial cells (HUVEC) (assay: HUVEC proliferation assay and/or HUVEC adhesion assay). Conditions: bound stated for the listed compounds.
Type: cell-based
Experimental: HUVEC Proliferation Assay
1. Coat 3 NUNC polystyrene 96 well plate (VWR, 62409-120; lids 62409-118) with vitronectin (purified internally), fibronectin (Collaborative Biomed 40008A) or fibrinogen (Calbiochem 341578) 50 ng/well in 50 μl PBS, 1 hr @ RT.
a. rinse with 5 mls PBS (no Ca, Mg)
3. Rinse vitronectin plates 1× in 200 μl PBS −/− and add 3000 cells per well in 100 ul growth medium (EBM2 (Clonetics, CC-3156)+EGM2 bullet kit (CC-4176)).
4. Incubate 24 hours at 37° C. to allow attachment.
5. Remove growth medium and add 100 μl growth medium+drugs (25 μM and down by five fold steps in DMSO-0.25% final DMSO concentration).
6. Incubate for 3 days changing media (+drugs).
7. Remove non-adherent cells on Friday with Raindance 12 well plate washer.
8. Wash twice with 200 μl PBS (+Mg & Ca).
9. Tap out excess liquid.
10. Freeze @ −70° C. for 30 minutes.
11. Thaw plate and add 150 μl CyQuant fluorescent dye (Molecular Probes C-7026).
12. Read after 4 minutes @ 485λ (excitation), 530λ (emission).
1. Coat 2 NUNC polystyrene 96 well plates (VWR, 62409-120; lids 62409-118) with 50 μl vitronectin (purified internally) at 50 ng/well in PBS (−Mg & Ca), for 1 hour @ 37° C.
2. Rinse with PBS & block with 150 μl PBS/1% BSA (Sigma A8918), 1 hour at @ 37° C.
3. Prepare drug dilutions:
a. 400 fold concentrate in 100% DMSO
b. 0.25% DMSO [assay]final
c. 10 mM & down (25 μMfinal & down)
d. dilute 1 μl of 400 fold conc into 200 μl adhesion media
a. rinse with 5 ml PBS (no Ca, Mg)
6. Rinse blocking buffer from assay plate and add 50 μl of drug dilutions.
7. Resuspend cells in adhesion media, count and add 2e4 cells/well in 50 μl (4e5/ml).
8. Incubate 60 minutes @ 37° C.
9. Remove non-adherent cells with Raindance 12 well plate washer.
10. Wash twice with 200 μl PBS (+Mg & Ca)
11. Tap out excess liquid.
12. Freeze @ −70° C. for 30 minutes to overnite.
13. Thaw plate and add 150 μl CyQuant fluorescent dye (Molecular Probes C-7026).
14. Read after 2-5 minutes @ 485λ (excitation), 530λ (emission).
Adhesion medium: Media 199 (which contains […] and 0.8 mM MgSO4), 0.5% BSA, 10 mM HEPES, 1 mM MgCl2, and 1 mM MnCl2

Compound	IC50
O=C(O)CC1CN(CC(=O)NCCCc2ccc3c(n2)NCCC3)CCc2ccccc21 (centres unmarked) [Example 28, 2-(3-{[N-(3-(1,2,3,4-tetrahydropyridino[2,3-b]pyridin-7-yl)propyl)carbamoyl]methyl}-1H,2H,4H,5H-benzo[d]azepinyl)acetic acid]	≤ 30 µM
O=C(O)CCC1CCN(S(=O)(=O)NCCc2ccc3c(n2)NCCC3)Cc2ccccc21 (centres unmarked) [Example 47]	≤ 30 µM
O=C(O)CC1CCN(C(=O)NCCCc2ccc3c(n2)NCCC3)Cc2cc(Br)c(Br)cc21 (centres unmarked) [Example 80, 2-{7,8-Dibromo-2-[N-(3-(1,2,3,4-tetrahydropyridino[2,3-b]pyridin-7-yl)propyl)carbamoyl]-1H,3H,4H,5 H-benzo[e]azepin-5-yl}acetic acid]	≤ 30 µM
O=C(O)CC1CCN(C(=O)Nc2cccc(CNc3ccccn3)c2)Cc2ccccc21 (centres unmarked) [Example 8, 2-(2-(N-(3-(2-pyridylamino)methylphenyl)carbamoyl)-1H,3H,4H,5H-benzo[e]azapin-5-yl)acetic acid]	≤ 30 µM
O=C(O)CC1CCN(S(=O)(=O)NCCCNc2ccccn2)Cc2ccccc21 (centres unmarked) [Example 15, 2-(2-(((3-(2-pyridylamino)prop-1-yl)amino)sulfonyl)-1H,3H,4H,5H-benzo[e]azapin-5-yl)acetic acid]	≤ 30 µM
O=C(O)CC1CCN(CC(=O)NCCCNc2ccccn2)Cc2ccccc21 (centres unmarked) [Example 19, 2-(2-((N-(3-(2-pyridylamino)prop-1-yl)carbamoyl)methyl)-1H,3H,4H,5H-benzo[e]azapin-5-yl)acetic acid]	≤ 30 µM
Cc1ccnc(NCCCCNC(=O)N2CCC(CC(=O)O)c3ccccc3C2)c1 (centres unmarked) [2-[2-(N-{4-[(4-methyl-2-pyridyl)amino]butyl}carbamoyl)-1H, 3H, 4H, 5H-benzo[e]azepin-5-yl]acetic acid]	≤ 30 µM
CC(C)(C)OC(=O)Nc1cccc(CCCNC(=O)N2CCC(CC(=O)O)c3ccccc3C2)n1 (centres unmarked) [Example 12, 2-(2-(N-(3-(6-(tert-butoxycarbonylamino)-2-pyridyl)proyl)carbamoyl)-1H,3H,4H,5H-benzo[e]azapin-5-yl)acetic acid]	≤ 30 µM
CN(CCCNc1ccccn1)C(=O)c1cn2c(n1)Cc1ccccc1C(CC(=O)O)C2 (centres unmarked) [Example 67, 2-(2-{N-methyl-N-[3-(2-pyridylamino)propyl]carbamoyl}-4H,5H,10H-benzo[d]imidazolo[1,2-a]azepin-5-yl)acetic acid]	≤ 30 µM
O=C(O)CC1CCN(C(=O)CNCCNc2ccccn2)Cc2ccccc21 (centres unmarked) [Example 16, 2-(2-(2-((2-(2-pyridylamino)ethyl)amino)acetyl)-1H,3H,4H,5H-benzo[e]azain-5-yl)acetic acid]	≤ 30 µM
O=C(O)CC1CCN(S(=O)(=O)NCCCCNc2ccccn2)Cc2ccccc21 (centres unmarked) [Example 14, 2-(2-(((4-(2-pyridylamino)but-1-yl)amino)sulfonyl)-1H,3H,4H,5H-benzo[e]azapin-5-yl)acetic acid]	≤ 30 µM
O=C(O)CC1CCN(C(=O)NCCCCNc2ncccn2)Cc2ccccc21 (centres unmarked) [Example 10, 2-(2-(N-(4-(pyrimidin-2-ylamino)but-1-yl)carbamoyl)-1H,3H,4H,5H-benzo[e]azapin-5-yl)acetic acid]	≤ 30 µM
O=C(O)C[C@@H]1CCN(C(=O)NCCc2ccc3c(n2)NCCC3)Cc2ccccc21 [Example 54, 2-((5S)-2-(N-(3-(1,2,3,4-tetrahydropyridino(2.3-b)pyridin-7-yl)ethyl)carbamoyl)-1H,3H,4H,5H-benzo[e]azapin-5-yl)acetic acid]	≤ 30 µM
O=C(O)CC1CCN(C(=O)NCCCc2ccc3c(n2)NCCC3)Cc2cc(NS(=O)(=O)c3ccccc3)ccc21 (centres unmarked) [Example 82, 2-{8-[(Phenylsulfonyl)amino]-2-[N-(3-(1,2,3,4-tetrahydropyridino[2,3-b]pyridin-7-yl)propyl)carbamoyl]-1H,3H,4H,5H-benzo[e]azepin-5-yl}acetic acid]	≤ 30 µM
O=C(O)CC1CCN(C(=O)NCCCc2ccc3c(n2)NCCC3)Cc2ccccc21 (centres unmarked) [Example 13, 2-(2-(N-(3-(1,2,3,4-tetrahydropyridino(2,3-b)pyridin-7-yl)prop-1-yl)carbamoyl)-1H,3H,4H,5H-benzo[e]azapin-5-yl)acetic acid]	≤ 30 µM
O=C(O)CC1Cn2cc(C(=O)NCCc3ccc4c(n3)NCCC4)nc2Cc2ccccc21 (centres unmarked) [Example 63, 2-{2-[N-(2-(1,2,3,4-tetrahydropyridino [2,3-b]pyridin-7-yl)ethyl)carbamoyl]-4H,5H,10H-benzo[d]imidazolo[1,2-a]azepin-5-yl}acetic acid]	≤ 30 µM
CN(C)c1ccc2c(c1)CN(C(=O)NCCCc1ccc3c(n1)NCCC3)CCC2CC(=O)O (centres unmarked) [Example 84, 2-{8-(Dimethylamino)-2-[N-(3-(1,2,3,4-tetrahydropyridino[2,3-b]pyridin-7-yl)propyl)carbamoyl]-1H,3H,4H,5H-benzo[e]azepin-5-yl}acetic acid]	≤ 30 µM
O=C(O)CC1CN(C(=O)CCCCCCNc2ccccn2)CCc2ccccc21 (centres unmarked) [Example 32, 2-{3-(7-(2-pyridylamino)heptanoyl)-1H,2H,4H,5H-benzo[d]azepin-1-yl}acetic acid]	≤ 30 µM
Cc1cc(CCCNC(=O)N2CCC(CC(=O)O)c3ccccc3C2)nc2c1CCCN2 (centres unmarked) [2-(2-{N-[3-(5-methyl-1,2,3,4-tetrahydropyridino[2,3-b]pyridin-7-yl)propyl]carbamoyl}-1H, 3H, 4H, 5H-benzo[e]azepin-5-yl)acetic acid]	≤ 30 µM
O=C(O)CC1CCN(C(=O)CNCCCCNc2ccccn2)Cc2ccccc21 (centres unmarked) [Example 18]	≤ 30 µM
O=C(O)CC1CCN(C(=O)NCCCc2ccc3c(n2)NCCC3)Cc2cc(-c3ccccc3)ccc21 (centres unmarked) [Example 73, 2-(8-phenyl-2-(N-(3-(1,2,3,4-tetrahydropyridino[2,3,b]pyridin-7-yl)propyl)carbamoyl)-1H,3H,4H,5H-benzo[e]azaperhydroepin-5-yl) acetic acid]	≤ 30 µM
N#C/N=C(\NCCCc1ccc2c(n1)NCCC2)N1CCC(CC(=O)O)c2ccccc2C1 (centres unmarked) [Example 42]	≤ 30 µM
O=C(O)CC1CCN(C(=O)CNCCCNc2ccccn2)Cc2ccccc21 (centres unmarked) [Example 17]	≤ 30 µM
O=C(O)C[C@H]1CCN(C(=O)NCCc2ccc3c(n2)NCCC3)Cc2ccccc21 [Example 53, 2-((5R)-2-(N-(3-(1,2,3,4-tetrahydropyridino(2,3-b)pyridin-7-yl)ethyl)carbamoyl)-1H,3H,4H,5H-benzo[e]azapin-5-yl)acetic acid]	≤ 30 µM
O=C(O)CC1CC(=O)N(CC(=O)NCCCNc2ccccn2)Cc2ccccc21 (centres unmarked) [Example 25, 2-(2-({N-(4-(2-pyridylamino)prop-1-yl)carbamoyl}methyl)-3-oxo-1H,4H,5H-benzo(e)azepin-5-yl) acetic acid]	≤ 30 µM
Nc1cccc(CCCNC(=O)N2CCC(CC(=O)O)c3ccccc3C2)n1 (centres unmarked) [Example 11, 2-(2-(N-(3-(6-amino-2-pyridyl)prop-1-yl)carbamoyl)-1H,3H,4H,5H-benzo[e]azapin-5-yl)acetic acid Hydrochloride]	≤ 30 µM
